The assay deals with T1, human GPR17 receptor (Homo sapiens, UniProt Q13304).
T1 construct: host or cells: HEK-293
Description: Calcium mobilization functional assay (Fluo-8, FLIPR TETRA) in HEK-293 hGPR17 (Gα-q assay). Particulars: antagonism of MDL29,951 (~EC80) induced Ca2+ signal; cell line (HEK-293 hGPR17 or HEK-293 Suchi5 hGPR17) not given. Format: cell-based. The essentials:
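Fluo-8-loaded HEK-293 hGPR17 cells (60 min dye loading, room temperature) were preincubated with compound for twenty minutes, then challenged with agonist MDL29,951 at ~EC80, 500 nM. Intracellular calcium release via Gα-q was recorded as FLIPR fluorescence for a further 2 minutes; compounds tested in duplicate.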

SMILES strings stand for the structures.

T1 sequence (Q13304 whole entry): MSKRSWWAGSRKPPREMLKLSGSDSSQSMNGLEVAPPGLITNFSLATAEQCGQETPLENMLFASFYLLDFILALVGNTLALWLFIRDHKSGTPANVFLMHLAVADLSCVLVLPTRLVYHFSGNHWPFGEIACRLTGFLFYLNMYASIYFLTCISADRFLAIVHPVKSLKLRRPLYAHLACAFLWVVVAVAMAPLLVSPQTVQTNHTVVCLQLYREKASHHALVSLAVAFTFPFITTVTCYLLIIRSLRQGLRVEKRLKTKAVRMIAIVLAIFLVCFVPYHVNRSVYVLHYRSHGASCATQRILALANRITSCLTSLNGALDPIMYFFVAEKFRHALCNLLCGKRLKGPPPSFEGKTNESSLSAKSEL

For the compound `O=S(=O)(Nc1cc(F)c(C(F)(F)F)cc1F)c1c[nH]c(-c2cc(CO)ccc2F)c1` [Cpd 234, N-[2,5-difluoro-4-(trifluoromethyl)phenyl]-5-[2-fluoro-5-(hydroxymethyl)phenyl]-1H-pyrrole-3-sulfonamide], the IC50 (in general, the point on the concentration scale where inhibition reaches its midpoint) is less than 0.5 µM.
In the case of `COCc1ccc(F)c(-c2cc(S(=O)(=O)Nc3cc(F)c(C(F)(F)F)cc3F)c[nH]2)c1` [Cpd 235, N-[2,5-difluoro-4-(trifluoromethyl)phenyl]-5-[2-fluoro-5-(methoxymethyl)phenyl]-1H-pyrrole-3-sulfonamide] it was 0.5 to 5 µM; in that of `N#Cc1ccc(NS(=O)(=O)c2c[nH]c(C3CC3)c2)c(F)c1` [Cpd 236, N-(4-cyano-2-fluoro-phenyl)-5-cyclopropyl-1H-pyrrole-3-sulfonamide], 5 to 50 µM.
In the case of `CCOc1cc(F)c(NS(=O)(=O)c2c[nH]c(-c3ccccn3)c2)cc1F` [Cpd 237, N-(4-ethoxy-2,5-difluoro-phenyl)-5-(2-pyridyl)-1H-pyrrole-3-sulfonamide] it was 0.5 to 5 µM; in that of `N#Cc1ccc(NS(=O)(=O)c2c[nH]cc2C2=CCCC2)c(F)c1` [Cpd 238, N-(4-cyano-2-fluorophenyl)-4-(cyclopent-1-en-1-yl)-1H-pyrrole-3-sulfonamide], less than 0.5 µM.
In the case of `O=S(=O)(Nc1ccc(OC(F)F)cc1F)c1c[nH]c(-c2ccccn2)c1` [Cpd 239, N-[4-(difluoromethoxy)-2-fluoro-phenyl]-5-(2-pyridyl)-1H-pyrrole-3-sulfonamide] it was 0.5 to 5 µM.
With `CCOc1ccccc1-c1cc(S(=O)(=O)Nc2ccc(C#N)cc2F)c[nH]1` [Cpd 240, N-(4-cyano-2-fluoro-phenyl)-5-(2-ethoxyphenyl)-1H-pyrrole-3-sulfonamide], the IC50 lay within 0.5 to 5 µM.
The value for `CC(C)Oc1cc(F)c(NS(=O)(=O)c2c[nH]c(-c3ccccn3)c2)cc1F` [Cpd 241, N-(2,5-difluoro-4-isopropoxy-phenyl)-5-(2-pyridyl)-1H-pyrrole-3-sulfonamide] was 5 to 50 µM; that for `N#Cc1ccc(NS(=O)(=O)c2c[nH]cc2C2CCCC2)c(F)c1` [Cpd 242, N-(4-cyano-2-fluoro-phenyl)-4-cyclopentyl-1H-pyrrole-3-sulfonamide] was 5 to 50 µM; that for `O=S(=O)(Nc1cc(F)c(C(F)(F)F)cc1F)c1c[nH]c(-c2nccn2CC(F)(F)F)c1` [Cpd 243, N-[2,5-difluoro-4-(trifluoromethyl)phenyl]-5-[1-(2,2,2-trifluoroethyl)imidazol-2-yl]-1H-pyrrole-3-sulfonamide] was 5 to 50 µM.
In the case of `N#Cc1ccc(NS(=O)(=O)c2c[nH]c(-c3ccccc3OC(F)F)c2)c(F)c1` [Cpd 244, N-(4-cyano-2-fluoro-phenyl)-5-[2-(difluoromethoxy)phenyl]-1H-pyrrole-3-sulfonamide] it was less than 0.5 µM.
In the case of `O=C1CCCN1c1cc(S(=O)(=O)Nc2cc(F)c(C(F)(F)F)cc2F)c[nH]1` [Cpd 245, N-[2,5-difluoro-4-(trifluoromethyl)phenyl]-5-(2-oxopyrrolidin-1-yl)-1H-pyrrole-3-sulfonamide] it was 5 to 50 µM.
In the case of `O=S(=O)(Nc1cc(F)c(OC(F)(F)F)cc1F)c1c[nH]c(-c2ccccn2)c1` [Cpd 246, N-[2,5-difluoro-4-(trifluoromethoxy)phenyl]-5-(2-pyridyl)-1H-pyrrole-3-sulfonamide], the IC50 was less than 0.5 µM.
As for `COc1ccnc(F)c1-c1cc(S(=O)(=O)Nc2cc(F)c(C(F)(F)F)cc2F)c[nH]1` [Cpd 247, N-[2,5-difluoro-4-(trifluoromethyl)phenyl]-5-(2-fluoro-4-methoxy-3-pyridyl)-1H-pyrrole-3-sulfonamide], the IC50 was 0.5 to 5 µM.
In the case of `CCn1ccnc1-c1cc(S(=O)(=O)Nc2cc(F)c(C(F)(F)F)cc2F)c[nH]1` [Cpd 248, N-[2,5-difluoro-4-(trifluoromethyl)phenyl]-5-(1-ethylimidazol-2-yl)-1H-pyrrole-3-sulfonamide] it was 0.5 to 5 µM.
In the case of `Cc1c(F)cccc1-c1cc(S(=O)(=O)Nc2ccc(C#N)cc2F)c[nH]1` [Cpd 249, N-(4-cyano-2-fluoro-phenyl)-5-(3-fluoro-2-methyl-phenyl)-1H-pyrrole-3-sulfonamide] it was 0.5 to 5 µM.
In the case of `Cc1ccc(-c2cc(S(=O)(=O)Nc3ccc(C#N)cc3F)c[nH]2)c(Cl)c1` [Cpd 250, 5-(2-chloro-4-methyl-phenyl)-N-(4-cyano-2-fluoro-phenyl)-1H-pyrrole-3-sulfonamide] it was 0.5 to 5 µM.
As to `COc1ccc(-c2cc(S(=O)(=O)Nc3ccc(C#N)cc3F)c[nH]2)c(C)c1` [Cpd 251, N-(4-cyano-2-fluoro-phenyl)-5-(4-methoxy-2-methyl-phenyl)-1H-pyrrole-3-sulfonamide], the IC50 was in the range of 5 to 50 µM.
In the case of `Cc1cccc(-c2cc(S(=O)(=O)Nc3ccc(C#N)cc3F)c[nH]2)c1C` [Cpd 252, N-(4-cyano-2-fluoro-phenyl)-5-(2,3-dimethylphenyl)-1H-pyrrole-3-sulfonamide] it was 0.5 to 5 µM; in that of `Cc1c(Cl)cccc1-c1cc(S(=O)(=O)Nc2ccc(C#N)cc2F)c[nH]1` [Cpd 253, 5-(3-chloro-2-methyl-phenyl)-N-(4-cyano-2-fluoro-phenyl)-1H-pyrrole-3-sulfonamide], 0.5 to 5 µM; in that of `Cc1ccc(Cl)c(-c2cc(S(=O)(=O)Nc3ccc(C#N)cc3F)c[nH]2)c1` [Cpd 254, 5-(2-chloro-5-methyl-phenyl)-N-(4-cyano-2-fluoro-phenyl)-1H-pyrrole-3-sulfonamide], 0.5 to 5 µM.
The value for `Cc1cc(F)ccc1-c1cc(S(=O)(=O)Nc2ccc(C#N)cc2F)c[nH]1` [Cpd 255, N-(4-cyano-2-fluoro-phenyl)-5-(4-fluoro-2-methyl-phenyl)-1H-pyrrole-3-sulfonamide] was 0.5 to 5 µM; that for `N#Cc1ccc(NS(=O)(=O)c2c[nH]c(-c3cc(F)ccc3Cl)c2)c(F)c1` [Cpd 256, 5-(2-chloro-5-fluoro-phenyl)-N-(4-cyano-2-fluoro-phenyl)-1H-pyrrole-3-sulfonamide] was less than 0.5 µM; that for `COc1ccc(Cl)c(-c2cc(S(=O)(=O)Nc3ccc(C#N)cc3F)c[nH]2)c1` [Cpd 257, 5-(2-chloro-5-methoxy-phenyl)-N-(4-cyano-2-fluoro-phenyl)-1H-pyrrole-3-sulfonamide] was less than 0.5 µM.
Regarding `N#Cc1ccc(NS(=O)(=O)c2c[nH]c(-c3ccc(F)cc3Cl)c2)c(F)c1` [Cpd 258, 5-(2-chloro-4-fluoro-phenyl)-N-(4-cyano-2-fluoro-phenyl)-1H-pyrrole-3-sulfonamide], the IC50 is less than 0.5 µM.
The value for `COc1cc(-c2cc(S(=O)(=O)Nc3ccc(C#N)cc3F)c[nH]2)ccc1F` [Cpd 259, N-(4-cyano-2-fluoro-phenyl)-5-(4-fluoro-3-methoxy-phenyl)-1H-pyrrole-3-sulfonamide] was 0.5 to 5 µM.
The value for `N#Cc1ccc(NS(=O)(=O)c2c[nH]c(-c3cc(Cl)ccc3Cl)c2)c(F)c1` [Cpd 260, N-(4-cyano-2-fluoro-phenyl)-5-(2,5-dichlorophenyl)-1H-pyrrole-3-sulfonamide] was less than 0.5 µM.
In the case of `N#Cc1ccc(NS(=O)(=O)c2c[nH]c(-c3ccc(Cl)cc3Cl)c2)c(F)c1` [Cpd 261, N-(4-cyano-2-fluoro-phenyl)-5-(2,4-dichlorophenyl)-1H-pyrrole-3-sulfonamide] it was 0.5 to 5 µM; in that of `Cc1cc(Cl)ccc1-c1cc(S(=O)(=O)Nc2ccc(C#N)cc2F)c[nH]1` [Cpd 262, 5-(4-chloro-2-methyl-phenyl)-N-(4-cyano-2-fluoro-phenyl)-1H-pyrrole-3-sulfonamide], 0.5 to 5 µM; in that of `Cc1cccc(-c2cc(S(=O)(=O)Nc3ccc(C#N)cc3F)c[nH]2)c1Cl` [Cpd 263, 5-(2-chloro-3-methyl-phenyl)-N-(4-cyano-2-fluoro-phenyl)-1H-pyrrole-3-sulfonamide], 0.5 to 5 µM.
Regarding `Cc1ccc(-c2cc(S(=O)(=O)Nc3ccc(C#N)cc3F)c[nH]2)cc1F` [Cpd 264, N-(4-cyano-2-fluoro-phenyl)-5-(3-fluoro-4-methyl-phenyl)-1H-pyrrole-3-sulfonamide], the IC50 lay within 0.5 to 5 µM.
In the case of `COc1cccc(Cl)c1-c1cc(S(=O)(=O)Nc2ccc(C#N)cc2F)c[nH]1` [Cpd 265, 5-(2-chloro-6-methoxy-phenyl)-N-(4-cyano-2-fluoro-phenyl)-1H-pyrrole-3-sulfonamide] it was 0.5 to 5 µM; in that of `COc1cccc(-c2cc(S(=O)(=O)Nc3ccc(C#N)cc3F)c[nH]2)c1Cl` [Cpd 266, 5-(2-chloro-3-methoxy-phenyl)-N-(4-cyano-2-fluoro-phenyl)-1H-pyrrole-3-sulfonamide], 5 to 50 µM.
In the case of `N#Cc1ccc(NS(=O)(=O)c2c[nH]c(-c3cccc(F)c3Cl)c2)c(F)c1` [Cpd 267, 5-(2-chloro-3-fluoro-phenyl)-N-(4-cyano-2-fluoro-phenyl)-1H-pyrrole-3-sulfonamide] it was less than 0.5 µM; in that of `COc1ccc(C)c(-c2cc(S(=O)(=O)Nc3ccc(C#N)cc3F)c[nH]2)c1` [Cpd 268, N-(4-cyano-2-fluoro-phenyl)-5-(5-methoxy-2-methyl-phenyl)-1H-pyrrole-3-sulfonamide], 0.5 to 5 µM; in that of `Cc1cc(-c2cc(S(=O)(=O)Nc3ccc(C#N)cc3F)c[nH]2)ccc1F` [Cpd 269, N-(4-cyano-2-fluoro-phenyl)-5-(4-fluoro-3-methyl-phenyl)-1H-pyrrole-3-sulfonamide], less than 0.5 µM.
The value for `N#Cc1ccc(NS(=O)(=O)c2c[nH]c(-c3c(Cl)cccc3Cl)c2)c(F)c1` [Cpd 270, N-(4-cyano-2-fluoro-phenyl)-5-(2,6-dichlorophenyl)-1H-pyrrole-3-sulfonamide] was 0.5 to 5 µM; that for `O=S(=O)(Nc1cc(F)c(OC(F)F)cc1F)c1c[nH]cc1Cc1ccccc1` [Cpd 271, 4-benzyl-N-[4-(difluoromethoxy)-2,5-difluoro-phenyl]-1H-pyrrole-3-sulfonamide] was less than 0.5 µM.

Source of the values: patent US20240299385A1 (ReWind Therapeutics NV, priority 2021, published 2024).
